Measured values published in US20260078130A1, “NAMPT MODULATORS, PREPARATIONS, AND USES THEREOF” (SIRONAX LTD., priority 2022, published 2026).

Target: T1, human enzyme NAMPT (full length) (Homo sapiens, UniProt P43490)
T1 construct: human enzyme NAMPT (full length)
Assay: NMN fluorescence biochemical assay (stimulation of NMN synthesis by NAMPT)
Settings: for EC50: NMN synthesis by purified human NAMPT (100 nM), concentration giving half-maximal activation, read-out: Enzymatic EC50; for Enzymatic Emax: fold change of maximal activation compared to DMSO
Procedure: Certain compounds described herein were assayed for their ability to stimulate the synthesis of nicotinamide mononucleotide (NMN) by human enzyme NAMPT (full length). The enzymatic assay was performed in a 384-well plate using a TMD buffer (50 mM Tris-HCl, 10 mM MgCl2, 2 mM DTT, pH 7.5). Purified NAMPT (100 nM) was pre-incubated with 0.2 μL. DMSO solution of the test compound (with a series of concentrations) in 10 μL TMD buffer for 15 min at 37° C. The reaction was initiated by adding 10 μL solution of NAM (50 μM), PRPP (100 μM), and ATP (4 mM) in TMD buffer. After 1 h of incubation at 37 T, an aliquot (20 μL) of the NMN-containing sample was sequentially mixed with 5 μL of 20% acetophenone (in DMSO) and 5 μL of 2M KOH. The mixture was placed on ice for 10 min. Next, 22.5 μL of 100% formic acid was added to each sample, vortexed, and then incubated at 37° C. for 20 min. Fluorescence (Ex/Em=382/445 nm) was measured using an Envision plate reader. The potency measurements for the test compounds were quantified and represented as EC50 (concentration of a compound that gives half-maximal activation) and Emax (fold change of a compound's maximal activation compared to DMSO).

T1 sequence (P43490 whole entry): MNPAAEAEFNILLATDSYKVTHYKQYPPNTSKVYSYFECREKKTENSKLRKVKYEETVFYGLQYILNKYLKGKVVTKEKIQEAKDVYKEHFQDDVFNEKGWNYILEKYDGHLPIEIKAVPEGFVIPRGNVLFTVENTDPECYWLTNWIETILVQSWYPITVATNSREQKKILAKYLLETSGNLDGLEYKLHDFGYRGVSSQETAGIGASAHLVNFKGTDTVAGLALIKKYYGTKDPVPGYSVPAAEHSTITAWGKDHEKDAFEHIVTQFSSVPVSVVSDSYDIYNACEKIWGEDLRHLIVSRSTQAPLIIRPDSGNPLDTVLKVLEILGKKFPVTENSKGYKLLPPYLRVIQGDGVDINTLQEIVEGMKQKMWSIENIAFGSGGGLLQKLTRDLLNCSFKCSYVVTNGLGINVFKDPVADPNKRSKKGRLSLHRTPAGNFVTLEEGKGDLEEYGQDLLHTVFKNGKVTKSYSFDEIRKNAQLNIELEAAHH

EC50	Enzymatic Emax	Compound
0.5 to 5 µM	B (3≥B>2)	O=C1c2ccccc2C(Cc2cc(F)ccn2)N1Cc1ccc2[nH]c(=O)oc2c1 (centres unmarked) [Compound 233, 6-((1-((4-fluoropyridin-2-yl)methyl)-3-oxoisoindolin-2-yl)methyl)benzo[d]oxazol-2(3H)-one]
≥ 5 µM	B (3≥B>2)	O=C1c2ccccc2C(Cc2ncccc2Br)N1Cc1ccn2cnnc2c1 (centres unmarked) [Compound 239, 2-([1,2,4]triazolo[4,3-a]pyridin-7-ylmethyl)-3-((3-bromopyridin-2-yl)methyl)isoindolin-1-one]
≥ 5 µM	B (3≥B>2)	CC1c2cccc(-c3cccnc3)c2C(=O)N1Cc1ccc2[nH]c(=O)oc2c1 (centres unmarked) [Compound 244, 6-((1-methyl-3-oxo-4-(pyridin-3-yl)isoindolin-2-yl)methyl)benzo[d]oxazol-2(3H)-one]
≥ 5 µM	B (3≥B>2)	CC1c2c(cccc2C2CC2)C(=O)N1Cc1ccc2[nH]c(=O)oc2c1 (centres unmarked) [Compound 245, 6-((4-cyclopropyl-3-methyl-1-oxoisoindolin-2-yl)methyl)benzo[d]oxazol-2(3H)-one]
≥ 5 µM	B (3≥B>2)	Cc1cccc2c1C(C)N(Cc1ccc3[nH]c(=O)oc3c1)C2=O (centres unmarked) [Compound 246, 6-((3,4-dimethyl-1-oxoisoindolin-2-yl)methyl)benzo[d]oxazol-2(3H)-one]
≥ 5 µM	B (3≥B>2)	CC1c2c(Br)cccc2C(=O)N1Cc1ccc2[nH]c(=O)oc2c1 (centres unmarked) [Compound 247, 6-((4-bromo-3-methyl-1-oxoisoindolin-2-yl)methyl)benzo[d]oxazol-2(3H)-one]
0.5 to 5 µM	A (A>3)	Cc1conc1CC1c2ccccc2C(=O)N1Cc1ccc2[nH]c(=O)oc2c1 (centres unmarked) [Compound 248, 6-((1-((4-methylisoxazol-3-yl)methyl)-3-oxoisoindolin-2-yl)methyl)benzo[d]oxazol-2(3H)-one]
< 0.5 µM	A (A>3)	Cn1cnc(CC2c3ccccc3C(=O)N2Cc2ccc3[nH]c(=O)oc3c2)c1Cl (centres unmarked) [Compound 249, 6-((1-((5-chloro-1-methyl-1H-imidazol-4-yl)methyl)-3-oxoisoindolin-2-yl)methyl)benzo[d]oxazol-2(3H)-one]
< 0.5 µM	B (3≥B>2)	Cn1cc(Cl)c(CC2c3ccccc3C(=O)N2Cc2ccc3[nH]nnc3c2)n1 (centres unmarked) [Compound 250, 2-((1H-benzo[d][1,2,3]triazol-5-yl)methyl)-3-((4-chloro-1-methyl-1H-pyrazol-3-yl)methyl) isoindolin-1-one]
< 0.5 µM	A (A>3)	Cn1ncc(Cl)c1CC1c2ccccc2C(=O)N1Cc1ccc2[nH]c(=O)oc2c1 (centres unmarked) [Compound 251, 6-((1-((4-chloro-1-methyl-1H-pyrazol-5-yl)methyl)-3-oxoisoindolin-2-yl)methyl)benzo[d]oxazol-2(3H)-one]
0.5 to 5 µM	B (3≥B>2)	O=C1c2ccccc2C(CC2CCCC2)N1Cc1ccc2[nH]c(=O)oc2c1 (centres unmarked) [Compound 252, 6-((1-(cyclopentylmethyl)-3-oxoisoindolin-2-yl)methyl)benzo[d]oxazol-2(3H)-one]
≥ 5 µM	A (A>3)	NC(=O)c1ccc(CC2c3ccccc3C(=O)N2Cc2ccc3[nH]c(=O)oc3c2)cc1 (centres unmarked) [Compound 253, 4-((3-oxo-2-((2-oxo-2,3-dihydrobenzo[d]oxazol-6-yl)methyl)isoindolin-1-yl)methyl) benzamide]
0.5 to 5 µM	B (3≥B>2)	COc1nc2cc(CN3C(=O)c4ccccc4C3Cc3ncccc3Br)ccc2[nH]1 (centres unmarked) [Compound 254, 3-((3-bromopyridin-2-yl)methyl)-2-((2-methoxy-1H-benzo[d]imidazol-5-yl)methyl) isoindolin-1-one]
0.5 to 5 µM	A (A>3)	O=C1c2ccccc2C(Cc2ncccc2Br)N1Cc1ccc2[nH]c(Cl)nc2c1 (centres unmarked) [Compound 255, 3-((3-bromopyridin-2-yl)methyl)-2-((2-chloro-1H-benzo[d]imidazol-5-yl)methyl) isoindolin-1-one]
≥ 5 µM	A (A>3)	Nn1c(=O)oc2cc(CN3C(=O)c4ccccc4C3Cc3ncccc3Br)ccc21 (centres unmarked) [Compound 256, 3-Amino-6-((1-((3-bromopyridin-2-yl)methyl)-3-oxoisoindolin-2-yl)methyl)benzo[d]oxazol-2(3H)-one]
0.5 to 5 µM	B (3≥B>2)	O=C1c2ccccc2C(COc2cccc(Cl)n2)N1Cc1ccc2[nH]c(=O)oc2c1 (centres unmarked) [Compound 260, 6-((1-(((6-chloropyridin-2-yl)oxy)methyl)-3-oxoisoindolin-2-yl)methyl)benzo[d]oxazol-2(3H)-one]

EC50	Enzymatic Emax	Compound
0.5 to 5 µM	A (A>3)	Cc1ccnnc1CC1c2ccccc2C(=O)N1Cc1ccc2[nH]c(=O)oc2c1 (centres unmarked) [Compound 261, 6-((1-((4-methylpyridazin-3-yl)methyl)-3-oxoisoindolin-2-yl)methyl)benzo[d]oxazol-2(3H)-one]
0.5 to 5 µM	A (A>3)	O=C1c2ccccc2C(Cc2ccc(Br)cn2)N1Cc1ccc2[nH]c(=O)oc2c1 (centres unmarked) [Compound 262, 6-((1-((5-bromopyridin-2-yl)methyl)-3-oxoisoindolin-2-yl)methyl)benzo[d]oxazol-2(3H)-one]
< 0.5 µM	A (A>3)	Cc1ccnc(Cl)c1CC1c2ccccc2C(=O)N1Cc1ccc2[nH]c(=O)oc2c1 (centres unmarked) [Compound 263, 6-((1-((2-chloro-4-methylpyridin-3-yl)methyl)-3-oxoisoindolin-2-yl)methyl)benzo[d]oxazol-2(3H)-one]
0.5 to 5 µM	B (3≥B>2)	NC(=O)c1cccc(CC2c3ccccc3C(=O)N2Cc2ccc3[nH]c(=O)oc3c2)c1 (centres unmarked) [Compound 264, 3-((3-oxo-2-((2-oxo-2,3-dihydrobenzo[d]oxazol-6-yl)methyl)isoindolin-1-yl)methyl) benzamide]
≥ 5 µM	A (A>3)	CC1c2cc(Cl)ccc2C(=O)N1Cc1ccc2[nH]c(=O)oc2c1 (centres unmarked) [Compound 265, 6-((5-chloro-3-methyl-1-oxoisoindolin-2-yl)methyl)benzo[d]oxazol-2(3H)-one]
≥ 5 µM	A (A>3)	O=C1c2ccccc2C(Cc2ncccc2Br)N1Cc1cc[nH]c(=O)c1 (centres unmarked) [Compound 266, 3-((3-bromopyridin-2-yl)methyl)-2-((2-oxo-1,2-dihydropyridin-4-yl)methyl)isoindolin-1-one]
0.5 to 5 µM	A (A>3)	O=C1c2ccccc2C(Cc2ncccc2Br)N1Cc1ccc(O)cn1 (centres unmarked) [Compound 267, 3-((3-bromopyridin-2-yl)methyl)-2-((5-hydroxypyridin-2-yl)methyl)isoindolin-1-one]
0.5 to 5 µM	A (A>3)	O=C1c2ccccc2C(Cc2ncccc2Br)N1Cc1ccc2[nH]cnc2c1 (centres unmarked) [Compound 268, 2-((1H-benzo[d]imidazol-5-yl)methyl)-3-((3-bromopyridin-2-yl)methyl)isoindolin-1-one]
≥ 5 µM	B (3≥B>2)	Nc1nnc2cc(CN3C(=O)c4ccccc4C3Cc3ncccc3Br)ccn12 (centres unmarked) [Compound 269, 2-((3-amino-[1,2,4]triazolo[4,3-a]pyridin-7-yl)methyl)-3-((3-bromopyridin-2-yl)methyl) isoindolin-1-one]
≥ 5 µM	B (3≥B>2)	NC(=O)c1cnc(CN2C(=O)c3ccccc3C2Cc2ncccc2Br)s1 (centres unmarked) [Compound 280, 2-((1-((3-bromopyridin-2-yl)methyl)-3-oxoisoindolin-2-yl)methyl)thiazole-5-carboxamide]
≥ 5 µM	C (2≥C)	O=C1c2ccccc2C(Cc2ncccc2Br)N1Cc1ccn2c(=O)[nH]nc2c1 (centres unmarked) [Compound 281, 7-((1-((3-bromopyridin-2-yl)methyl)-3-oxoisoindolin-2-yl)methyl)-[1,2,4]triazolo[4,3-a]pyridin-3(2H)-one]
< 0.5 µM	B (3≥B>2)	N#Cc1nccc(Cl)c1CC1c2cc(C3COC3)ccc2C(=O)N1Cc1ccc2[nH]c(=O)oc2c1 (centres unmarked) [Compound 285, 4-chloro-3-((6-(oxetan-3-yl)-3-oxo-2-((2-oxo-2,3-dihydrobenzo[d]oxazol-6-yl)methyl)isoindolin-1-yl)methyl)picolinonitrile]
< 0.5 µM	B (3≥B>2)	N#Cc1nccc(Cl)c1CC1c2cccc(F)c2C(=O)N1Cc1ccc2[nH]c(=O)oc2c1 (centres unmarked) [Compound 286, 4-chloro-3-((4-fluoro-3-oxo-2-((2-oxo-2,3-dihydrobenzo[d]oxazol-6-yl)methyl)isoindolin-1-yl)methyl)picolinonitrile]
0.5 to 5 µM	B (3≥B>2)	O=C1c2ccccc2C(Cc2ncccc2Br)N1Cc1ccc2[nH]c(=S)oc2c1 (centres unmarked) [Compound 287, 3-((3-bromopyridin-2-yl)methyl)-2-((2-thioxo-2,3-dihydrobenzo[d]oxazol-6-yl)methyl) isoindolin-1-one]
≥ 5 µM	C (2≥C)	O=C1c2ccccc2C(Cc2ncccc2Br)N1Cc1ccc2c(c1)nnn2O (centres unmarked) [Compound 288, 3-((3-bromopyridin-2-yl)methyl)-2-((1-hydroxy-1H-benzo[d][1,2,3]triazol-5-yl)methyl) isoindolin-1-one]
